Values after ≈ are worked out from the molar mass of the structure shown. Like-named read-outs stand apart in the source and are kept apart here.
Experiments:
[1] = test system: Human colon cancer cell line HT-29; test: Determination of the activity of inhibiting cell proliferation (Cell Counting Kit-8); type: cell-based; settings: HT-29, 96 h, HT29, 2,000 cells/well, incubated four days, read-out: Cell proliferation inhibitory activity (HT29) IC50
Procedure: Human colon cancer cell line HT-29, obtained from American Type Culture Collection (VA, USA), and human non-small cell lung cancer cell line QG56, obtained from Immuno-Biological Laboratories Co., Ltd., were plated at 2,000 cells/well in a 96-well culture plate, and incubated for four days after addition of a MEK inhibitor of a given concentration.

MEK = MEK (Homo sapiens, UniProt Q02750); test: Determination of MEK inhibitory activities (Raf-1 kinase cascade assay, MBP phosphorylation, 33P-ATP)
Text: The radioisotope used was [γ^33P]-ATP (Amersham Biosciences, K.K.).

[2] = Determination of water solubility (equilibrium stirring method); type: physicochemical; settings: for solubility at 2 h: aqueous buffer, thermodynamic from solid, read-out: Water solubility (LySA PH 6.5)
Procedure: The vessels were sealed, and the contents were sonicated at room temperature (20° C.) for ten minutes, and then stirred with a stirrer for two hours. After reaching solution equilibrium, the solution was separated with a membrane filter, and the solute concentration was determined using HPLC.

[3] = Determination of stability against mouse liver microsomes; type: in vitro ADME; settings: mouse liver microsomes 1 mg protein/mL, 2 mM NADPH, pH 7.4, 37 C; read-out: Stability against mouse liver microsome NADPH+ T1/2
Procedure: (§1) The enzyme reaction was quenched with three volumes of acetonitrile, and the reaction mixture was centrifuged at 1,500 rpm for ten minutes to provide a supernatant as a sample to be measured. Stability against mouse liver microsomes was measured using HPLC/MS to determine the compounds in the sample.

[4] = Determination of stability against human liver microsomes; type: in vitro ADME; settings: human liver microsomes 1 mg protein/mL, 2 mM NADPH, pH 7.4, 37 C; read-out: Stability against human liver microsome NADPH+ T1/2
Procedure: as §1, with “human” for “mouse”

[5] = 50 mM phosphate buffer pH 6.5, room temperature (20 C)

MEK, sequence (Q02750 whole entry): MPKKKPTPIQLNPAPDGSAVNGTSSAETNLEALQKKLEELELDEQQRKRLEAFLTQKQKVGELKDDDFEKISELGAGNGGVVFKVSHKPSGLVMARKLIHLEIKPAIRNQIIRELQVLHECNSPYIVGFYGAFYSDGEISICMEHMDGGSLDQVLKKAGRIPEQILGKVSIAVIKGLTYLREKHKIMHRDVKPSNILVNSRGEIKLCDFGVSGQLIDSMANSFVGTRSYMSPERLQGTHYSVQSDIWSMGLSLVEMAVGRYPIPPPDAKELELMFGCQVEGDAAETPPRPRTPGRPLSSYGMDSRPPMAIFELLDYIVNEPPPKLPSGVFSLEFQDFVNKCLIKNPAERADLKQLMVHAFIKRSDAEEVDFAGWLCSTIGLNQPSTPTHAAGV

Structure (SMILES)	IC50 [1]	IC50 (MEK)	solubility at 2 h [2, 5]	half-life [3]	half-life [4]	solubility at 2 h ([2]; phosphate buffer, 20 °C, at pH 6.08)	solubility at 2 h ([2]; phosphate buffer, 20 °C, at pH 6.67)	Water solubility (LySA PH 6.5) [2, 5]
O=C(NOCCO)c1cc(/C=N\OCCN2CCCC2=O)c(F)c(F)c1Nc1ccc(I)cc1F [Compound 60, (Z)-3,4-difluoro-2-(2-fluoro-4-iodo-phenylamino)-N-(2-hydroxy-ethoxy)-5-{[2-(2-oxo-pyrrolidin-1-yl)-ethoxyimino]-methyl}-benzamide]	0.02 µM	0.078 µM	–	–	–	–	–	–
CS(=O)(=O)CCO/N=C\c1cc(C(=O)NOCCO)c(Nc2ccc(I)cc2F)c(F)c1F [Compound 53, (Z)-3,4-Difluoro-2-(2-fluoro-4-iodo-phenylamino)-N-(2-hydroxy-ethoxy)-5-[(2-methanesulfonyl-ethoxyimino)-methyl]-benzamide]	0.0019 µM	0.017 µM	< 7.8 µM	–	–	–	–	–
CNC(=O)CCO/N=C/c1cc(C(=O)NOCCO)c(Nc2ccc(I)cc2F)c(F)c1F [Compound 14, (E)-3,4-difluoro-2-(2-fluoro-4-iodo-phenylamino)-N-(2-hydroxy-ethoxy)-5-[(2-methylcarbamoyl-ethoxyimino)-methyl]-benzamide]	0.038 µM	0.0097 µM	14 µM (≈ 8.12 µg/mL)	0.767 h	–	–	–	–
CC(C)(O)CCO/N=C/c1cc(C(=O)NOCCO)c(Nc2ccc(I)cc2F)c(F)c1F [Compound 33, (E)-3,4-difluoro-2-(2-fluoro-4-iodo-phenylamino)-N-(2-hydroxy-ethoxy)-5-[(3-hydroxy-3-methyl-butoxyimino)-methyl]-benzamide]	0.275 µM	0.0375 µM	< 7.8 µM	–	–	–	–	–
O=C(NOCCO)c1cc(/C=N/OCCCO)c(F)c(F)c1Nc1ccc(I)cc1F [Compound 4, (E)-3,4-Difluoro-2-(2-fluoro-4-iodo-phenylamino)-N-(2-hydroxy-ethoxy)-5-[(3-hydroxy-propoxyimino)-methyl]-benzamide]	0.045 µM	0.069 µM	–	> 6 h	> 6 h	3.8 µM (≈ 2.1 µg/mL)	–	–
O=C(NOCCO)c1cc(/C=N/OCC(O)CO)c(F)c(F)c1Nc1ccc(I)cc1F (racemic) [Compound 7, (E)-dl-5-[(2,3-Dihydroxy-propoxyimino)-methyl]-3,4-difluoro-2-(2-fluoro-4-iodo-phenylamino)-N-(2-hydroxy-ethoxy)-benzamide]	0.037 µM	0.033 µM	–	> 6 h	1.51 h	–	162 µM (≈ 92.2 µg/mL)	–
CS(=O)(=O)CCO/N=C/c1cc(C(=O)NOCCO)c(Nc2ccc(I)cc2F)c(F)c1F [Compound 40, (E)-3,4-difluoro-2-(2-fluoro-4-iodo-phenylamino)-N-(2-hydroxy-ethoxy)-5-[(2-methanesulfonyl-ethoxyimino)-methyl]-benzamide]	0.027 µM	0.067 µM	–	> 6 h	1.49 h	–	–	–
CC(C)(O)CO/N=C/c1cc(C(=O)NOCCO)c(Nc2ccc(I)cc2F)c(F)c1F [Compound 12, (E)-3,4-difluoro-2-(2-fluoro-4-iodophenylamino)-N-(2-hydroxy-ethoxy)-5-[(2-hydroxy-2-methyl-propoxyimino)-methyl]-benzamide]	< 0.0195 µM	0.037 µM	–	> 6 h	–	–	–	15 µM
O=C(NOCCO)c1cc(/C=N/OCCN2CCCCC2)c(F)c(F)c1Nc1ccc(I)cc1F [Compound 17, (E)-3,4-difluoro-2-(2-fluoro-4-iodo-phenylamino)-N-(2-hydroxy-ethoxy)-5-[(2-piperidin-1-yl-ethoxyimino)-methyl]-benzamide]	0.92 µM	0.287 µM	462 µM (≈ 280 µg/mL)	> 6 h	–	–	–	–
O=C(NOCCO)c1cc(/C=N/OCc2ccncc2)c(F)c(F)c1Nc1ccc(I)cc1F [Compound 30, (E)-3,4-difluoro-2-(2-fluoro-4-iodo-phenylamino)-N-(2-hydroxy-ethoxy)-5-[(pyridin-4-ylmethoxyimino)-methyl]-benzamide]	0.79 µM	0.088 µM	< 31.3 µM	> 6 h	–	–	–	–
O=C(NOCCO)c1cc(/C=N/OCCCCO)c(F)c(F)c1Nc1ccc(I)cc1F [Compound 36, (E)-3,4-difluoro-2-(2-fluoro-4-iodo-phenylamino)-5-[(4-hydroxy-butoxyimino)-methyl]-N-(2-hydroxy-ethoxy)-benzamide]	0.365 µM	0.045 µM	< 7.8 µM	–	–	–	–	–
CNCCO/N=C/c1cc(C(=O)NOCCO)c(Nc2ccc(I)cc2F)c(F)c1F [Compound 23, (E)-3,4-difluoro-2-(2-fluoro-4-iodo-phenylamino)-N-(2-hydroxy-ethoxy)-5-[(2-methylamino-ethoxyimino)-methyl]-benzamide]	0.088 µM	0.085 µM	–	–	–	–	–	–
CO/N=C/c1cc(C(=O)NOCCO)c(Nc2ccc(I)cc2F)c(F)c1F [Compound 31, (E)-3,4-difluoro-2-(2-fluoro-4-iodo-phenylamino)-N-(2-hydroxy-ethoxy)-5-[methoxyimino-methyl]-benzamide]	0.463 µM	0.335 µM	–	–	–	–	–	–
COC(C)(C)CCO/N=C/c1cc(C(=O)NOCCO)c(Nc2ccc(I)cc2F)c(F)c1F [Compound 37, (E)-3,4-difluoro-2-(2-fluoro-4-iodo-phenylamino)-N-(2-hydroxy-ethoxy)-5-[(3-methoxy-3-methyl-butoxyimino)-methyl]-benzamide]	0.6 µM	0.287 µM	–	–	–	–	–	–
O=C(NOCCO)c1cc(/C=N\OCCN2CCNC2=O)c(F)c(F)c1Nc1ccc(I)cc1F [Compound 59, (Z)-3,4-difluoro-2-(2-fluoro-4-iodo-phenylamino)-N-(2-hydroxy-ethoxy)-5-{[2-(2-oxo-imidazolidin-1-yl)-ethoxyimino]-methyl}-benzamide]	0.017 µM	0.05 µM	69 µM (≈ 41.9 µg/mL)	–	–	–	–	–
O=C(NOCCO)c1cc(/C=N/OCC2(CO)CC2)c(F)c(F)c1Nc1ccc(I)cc1F [Compound 35, (E)-3,4-difluoro-2-(2-fluoro-4-iodo-phenylamino)-N-(2-hydroxy-ethoxy)-5-[(1-hydroxymethyl-cyclopropylmethoxyimino)-methyl]-benzamide]	0.203 µM	0.0304 µM	< 7.8 µM	–	–	–	–	–
CC(C)(O)CO/N=C\c1cc(C(=O)NOCCO)c(Nc2ccc(I)cc2F)c(F)c1F [Compound 51, (Z)-3,4-Difluoro-2-(2-fluoro-4-iodo-phenylamino)-N-(2-hydroxy-ethoxy)-5-[(2-hydroxy-2-methyl-propoxyimino)-methyl]-benzamide]	0.006 µM	0.021 µM	< 7.8 µM	–	–	–	–	–
O=C(NOCCO)c1cc(/C=N/OCc2cnc[nH]2)c(F)c(F)c1Nc1ccc(I)cc1F [Compound 29, (E)-3,4-difluoro-2-(2-fluoro-4-iodo-phenylamino)-N-(2-hydroxy-ethoxy)-5-[(3H-imidazol-4-ylmethoxyimino)-methyl]-benzamide]	0.165 µM	0.576 µM	–	–	–	–	–	–
CSCCO/N=C/c1cc(C(=O)NOCCO)c(Nc2ccc(I)cc2F)c(F)c1F [Compound 39, (E)-3,4-difluoro-2-(2-fluoro-4-iodo-phenylamino)-N-(2-hydroxy-ethoxy)-5-[(2-methylsulfanyl-ethoxyimino)-methyl]-benzamide]	0.114 µM	0.232 µM	< 7.8 µM	–	–	–	–	–
COCCO/N=C/c1cc(C(=O)NOCCO)c(Nc2ccc(I)cc2F)c(F)c1F [Compound 38, (E)-3,4-difluoro-2-(2-fluoro-4-iodo-phenylamino)-N-(2-hydroxy-ethoxy)-5-[(2-methoxy-ethoxyimino)-methyl]-benzamide]	0.476 µM	0.395 µM	–	–	–	–	–	–
CC(C)(CO)CO/N=C/c1cc(C(=O)NOCCO)c(Nc2ccc(I)cc2F)c(F)c1F [Compound 34, (E)-3,4-difluoro-2-(2-fluoro-4-iodo-phenylamino)-5-[(E)-(3-hydroxy-2,2-dimethyl-propoxyimino)-methyl]-N-(2-hydroxy-ethoxy)-benzamide]	0.143 µM	0.069 µM	< 7.8 µM	–	–	–	–	–
O=C(NOCCO)c1cc(/C=N/OCCOCCO)c(F)c(F)c1Nc1ccc(I)cc1F [Compound 46, (E)-3,4-difluoro-2-(2-fluoro-4-iodo-phenylamino)-N-(2-hydroxy-ethoxy)-5-{[2-(2-hydroxy-ethoxy)-ethoxyimino]-methyl}-benzamide]	0.103 µM	0.107 µM	–	–	–	–	–	–
CC(C)O/N=C/c1cc(C(=O)NOCCO)c(Nc2ccc(I)cc2F)c(F)c1F [Compound 32, (E)-3,4-difluoro-2-(2-fluoro-4-iodo-phenylamino)-N-(2-hydroxy-ethoxy)-5-[isopropoxyimino-methyl]-benzamide]	0.084 µM	1.25 µM	–	–	–	–	–	–

— patent publication US8084645B2, “4-phenylamino-benzaldoxime derivatives and uses thereof as mitogen-activated protein kinase kinase (MEK) inhibitors” (Chugai Seiyaku Kabushiki Kaisha, priority 2003, dated 2011)
